Laboratory results: the supplement of paper PMC7287046

How the values were obtained:
Settings in all cases: exposure time: 72 h
SNB75 = tested on: SNB75
Description: (§1)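 Glioma cell lines and primary cultures were treated with single drugs in a nine-step threefold dilution series, about 72 h. Viability was read by CellTiter-Glo and normalised to untreated controls. Absolute IC50 was fitted in GraphPad Prism; values beyond the tested dose range are censored at the block's top or lowest dose.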

U87 = tested on: U87
Description: as §1

T98 = tested on: T98
Description: as §1

U251 = tested on: U251
Description: as §1

SF539 = tested on: SF539
Description: as §1

CAS-1 = tested on: CAS-1
Description: as §1

SF268 = tested on: SF268
Description: as §1

U118 = tested on: U118
Description: as §1

KNS42 = tested on: KNS42
Description: as §1

AM38 = tested on: AM38
Description: as §1

| Compound | IC50 (absolute, viability) (U87) [µM] | IC50 (absolute, viability) (U251) [nM] | IC50 (absolute, viability) (SNB75) [nM] | IC50 (absolute, viability) (T98) [nM] | IC50 (absolute, viability) (SF539) [nM] | IC50 (absolute, viability) (CAS-1) [nM] | IC50 (absolute, viability) (SF268) [nM] | IC50 (absolute, viability) (U118) [nM] | IC50 (absolute, viability) (KNS42) [µM] | IC50 (absolute, viability) (AM38) [nM] |
| --- | --- | --- | --- | --- | --- | --- | --- | --- | --- | --- |
| CCC(=O)N1CCN(c2ccc(-n3c(=O)ccc4cnc5ccc(-c6cnc7ccccc7c6)cc5c43)cc2C(F)(F)F)CC1 [Torin1] | 0.0174 | 199 | 19.1 | 25.1 | 28 | 28.5 | 74.6 | 27.4 | 0.434 | 4.18 |
| Cc1cc([C@@H](C)Nc2ccccc2C(=O)O)c2nc(N3CCOCC3)cc(=O)n2c1 [AZD6482] | 6.69 | 5070 | 9910 | 8390 | 4860 | 3150 | 13900 | 22000 | 41.4 | 8350 |
| Nc1ccn([C@@H]2O[C@H](CO)[C@@H](O)C2(F)F)c(=O)n1 [Gemcitabine] | 0.0279 | 149 | 148 | 450 | 182 | 206 | 210 | 320 | 0.859 | 145 |
| CC(=O)O[C@@]12CO[C@@H]1C[C@H](O)[C@@]1(C)C(=O)[C@H](O)C3=C(C)[C@@H](OC(=O)[C@H](O)[C@@H](NC(=O)OC(C)(C)C)c4ccccc4)C[C@@](O)([C@@H](OC(=O)c4ccccc4)[C@H]21)C3(C)C [Docetaxel] | 0.00273 | 0.0604 | 1.67 | 0.818 | 0.628 | 43.7 | 2.31 | 10.1 | 0.00438 | 1.28 |

Second part, led by results:

| IC50 (absolute, viability) (U87) [µM] | IC50 (absolute, viability) (U251) [nM] | Compound | IC50 (absolute, viability) (SNB75) [nM] | IC50 (absolute, viability) (T98) [nM] | IC50 (absolute, viability) (SF539) [nM] | IC50 (absolute, viability) (CAS-1) [nM] | IC50 (absolute, viability) (SF268) [nM] | IC50 (absolute, viability) (U118) [nM] | IC50 (absolute, viability) (KNS42) [µM] | IC50 (absolute, viability) (AM38) [nM] |
| --- | --- | --- | --- | --- | --- | --- | --- | --- | --- | --- |
| 7.18 | 6150 | C=CCc1cccc(/C=N/NC(=O)CN2CCN(Cc3ccccc3)CC2)c1O [PAC-1] | 2980 | 1710 | 3060 | > 100000 | 2970 | 5440 | 17.8 | 404 |
| 12 | 48700 | CCOc1nc(NC(=O)Cc2cc(OC)ccc2OC)cc(N)c1C#N [JNK inhibitor VIII] | 8380 | 6360 | 7090 | 20200 | 21100 | 28800 | 36.5 | 15800 |
